Test results taken from patent US20130303575A1, “ADMINISTRATION OF AN INHIBITOR OF HDAC” (priority 2007, published 2013).
Entries after “also recorded” stand apart in the source; their conditions may differ. Where two headings read alike, the source gives them in different places.

Key:
[1] = system: acetylated histone H3; test: Immunocytochemical analysis of acetylated histone H3 in PBMCs (Example 2); type: in vivo, human
Experimental: Louis, Mo.) for 10 minutes at room temperature, rinsed quickly with water, air-dried, mounted using SlowFade (Molecular Probes), and imaged using a Zeiss Axiophot microscope interfaced with a CCD camera (Optronics Engineering, Goleta, Calif.). Positive controls were prepared by exposing healthy donor PBMCs to SNDX-275 in vitro. Buffy coats, provided anonymously as a byproduct of whole-blood donations from paid, healthy volunteer donors through an international review board-approved protocol, were centrifuged on Ficoll-Paque Plus. […] Cells were processed for histone hyperacetylation in the same manner as patient samples. Images of PBMCs stained for acetylated histone H3 were imported into the Openlab image analysis program (Improvision, Coventry, United Kingdom) and histone acetylation levels were assessed using the Openlab quantification software.

[2] = system: plasma proteins; test: Plasma protein binding; type: in vitro ADME
[3] = Plasma pharmacokinetics of oral SNDX-275 in adults with advanced acute leukemias (Example 3); type: in vivo, human; details: for AUC / Cmax / half-life / Tmax: human, plasma, oral; for AUC: read-out: AUC (mean and SD); for Cmax: read-out: Cmax (mean and SD)
Experimental: Separated plasma was immediately frozen on dry ice and then stored at -70° C. until analysis. […] The pharmacokinetic parameters of interest included peak plasma concentration (Cmax), time to peak concentration (Tmax), area under the plasma concentration versus time curve extrapolated to infinity (AUC), apparent oral clearance (CL/F), and the terminal half-life (T1/2, z). […] The influence of the dose level on CL/F was evaluated using the Kruskal-Wallis' one-way analysis of ranks test, followed by the Dunn's multiple comparison test for identifying statistically significant group differences. These calculations were preformed with the software package NCSS version 2001 (Number Cruncher Statistical Systems, […], Utah).

[4] = system: advanced acute leukemias; test: Clinical outcome and biologic effects in adults with advanced acute leukemias (Example 3); type: in vivo, human
Experimental: To assess response to therapy, a BM aspiration was performed weekly for 4 weeks during the first cycle, at the end of each subsequent cycle, or at any time leukemia regrowth was suspected. Complete response (CR) required a normal BM aspirate with absence of identifiable leukemia, absolute neutrophils count (ANC) of 1×10^9/L or higher, platelet count of 100×10^9/L or higher, and absence of blasts in peripheral blood (PB). […] Progressive disease (PD) was defined as >50% increase in marrow or PB blasts from baseline or development of extramedullary leukemia.

[5] = 4 mg/m2, 4 mg/m^2, first dose, with food, 7 patients

## Nc1ccccc1NC(=O)c1ccc(CNC(=O)OCc2cccnc2)cc1 [SNDX-275, N-(2-aminophenyl) 4-[N-(pyrid-3-yl)methyloxycarbonylaminomethyl]benzamide]
[1]; apparent at all dose levels, immunofluoresence analysis
  histone H3 acetylation in peripheral-blood mononuclear-cells: Increased histone H3 acetylation
[1]; daily schedule patients
  histone H3 and H4 acetylation (HDAC inhibition): HDAC inhibition occurred after one dose
[2]
  binding to albumin versus other plasma proteins: no greater binding affinity to albumin than other plasma proteins
  protein bound: ≈ 80%
[3]; 4 to 10 mg/m^2
  AUC with increasing doses: reached a plateau
[3]; All doses, n = 27
  T1/2 (mean and SD), terminal half-life: 36 h
[3]; [5]
  AUC: 208 ± 86.1 ng·h/mL
  Cmax: 4.74 ± 3.41 ng/mL
[3]; 4 mg/m2, 4 mg/m^2, first dose, with food, 7 patients, read-out: T1/2 (mean and SD) (converted)
  half-life: 36.6 ± 18.6 h
[3]; 4 mg/m2, 4 mg/m^2, first dose, with food, 7 patients, read-out: Tmax (median)
  Tmax: 12 h
[3]; 6 mg/m2, 6 mg/m^2, first dose, with food, 7 patients
  Cmax: 4.87 ± 1.76 ng/mL
[3]; 6 mg/m2, 6 mg/m^2, first dose, with food, 7 patients, read-out: Tmax (median)
  Tmax: 12 h
[3]; 6 mg/m2, 6 mg/m^2, first dose, with food, n = 5
  AUC: 351 ng·h/mL
[3]; 6 mg/m2, 6 mg/m^2, first dose, with food, n = 5, read-out: T1/2 (mean and SD) (converted)
  half-life: 43.8 ± 16.4 h
[3]; 8 mg/m2, 8 mg/m^2, first dose, with food, 15 patients
  Cmax: 53.1 ± 92.4 ng/mL
[3]; 8 mg/m2, 8 mg/m^2, first dose, with food, 15 patients, read-out: Tmax (median)
  Tmax: 1 h
[3]; 8 mg/m2, 8 mg/m^2, first dose, with food, n = 10
  AUC: 328 ng·h/mL
[3]; 8 mg/m2, 8 mg/m^2, first dose, with food, n = 10, read-out: T1/2 (mean and SD) (converted)
  half-life: 33.4 ± 12.7 h
[3]; 10 mg/m2, 10 mg/m^2, first dose, with food, 6 patients
  Cmax: 53.2 ± 58 ng/mL
[3]; 10 mg/m2, 10 mg/m^2, first dose, with food, 6 patients, read-out: Tmax (median)
  Tmax: 1 h
[3]; 10 mg/m2, 10 mg/m^2, first dose, with food, n = 5
  AUC: 312 ng·h/mL
[3]; 10 mg/m2, 10 mg/m^2, first dose, with food, n = 5, read-out: T1/2 (mean and SD) (converted)
  half-life: 30.4 ± 13.9 h
[3]; All doses, 35 patients, read-out: Tmax (median)
  Tmax: ~2 h
[3]; All doses, n = 27, read-out: T1/2 (mean and SD), terminal half-life (converted)
  half-life: 35.6 ± 15 h
[3]; all dose levels, read-out: range of Tmax values
  Tmax: 0.5 to 36 h
[4]; 34 patients evaluable for response
  CR or PR by standard criteria: No patients achieved CR or PR
[4]; Fifteen patients
  patients with a 50% reduction in WBC counts: 38.5%
[4]; patient 2, 4 mg/m^2 × 2/4 weeks, 4 cycles, bone marrow blast response
  Type of Response: Bone marrow PR (>50% → 12% blasts, cycle 1)
[4]; patient 2, 4 mg/m^2 × 2/4 weeks, 4 cycles, myeloid differentiation by ANC
  Type of Response: Differentiation in myeloid lineage (ANC 504/μL →
[4]; patient 2, 4 mg/m^2 × 2/4 weeks, cycle 1, from ANC 504/μL
  ANCmax: ANCmax 1410/μL, cycle 1)
[4]; patient 5, 4 mg/m^2 × 2/4 weeks (cycle 1), 6 mg/m^2 × 2/4 weeks (cycle 2 and 3), 3 cycles
  Type of Response: Stable disease
[4]; patient 11, 8 mg/m^2 × 2/4 weeks, 1 cycle
  Type of Response: Decreased transfusion requirements
[4]; patient 14, 8 mg/m^2 × 4/6 weeks, 1 cycle
  Type of Response: Resolution of bone pain
[4]; patient 15, 8 mg/m^2 × 4/6 weeks, 1.75 cycles, bone marrow blast response
  Type of Response: Bone marrow PR (35% → 14% blasts, cycle 1)
[4]; patient 15, 8 mg/m^2 × 4/6 weeks, 1.75 cycles, myeloid differentiation by ANC
  Type of Response: Differentiation in myeloid lineage (ANC 288/μL →
[4]; patient 15, 8 mg/m^2 × 4/6 weeks, cycle 1, from ANC 288/μL
  ANCmax: 2052 µL⁻¹
[4]; patient 15, 8 mg/m^2 × 4/6 weeks, cycle 2
  ANCmax: 5546 µL⁻¹
[4]; patient 18, 8 mg/m^2 × 4/6 weeks, 1.25 cycles
  Type of Response: Differentiation in myeloid lineage (ANC 124/μL →
[4]; patient 18, 8 mg/m^2 × 4/6 weeks, cycle 1, from ANC 124/μL
  ANCmax: ANCmax 680/μL, cycle 1)
[4]; patient 20, 8 mg/m^2 × 4/6 weeks, 1 cycle
  Type of Response: Decreased transfusion requirements
[4]; patient 24, 8 mg/m^2 × 4/6 weeks, 4.75 cycles, bone marrow blast response
  Type of Response: Bone marrow PR (30% → 20% blasts, cycle 1)
[4]; patient 24, 8 mg/m^2 × 4/6 weeks, 4.75 cycles, myeloid differentiation by ANC
  Type of Response: Differentiation in myeloid lineage (ANC 520/μL →
[4]; patient 24, 8 mg/m^2 × 4/6 weeks, cycle 1, from ANC 520/μL
  ANCmax: 3637 µL⁻¹
[4]; patient 24, 8 mg/m^2 × 4/6 weeks, cycle 3
  ANCmax: 4456 µL⁻¹
[4]; patient 27, 8 mg/m^2 × 4/6 weeks, 5 cycles
  Type of Response: Stable disease; also recorded: Peripheral blood 21% → 0% blasts
[4]; patient 33, 10 mg/m^2 × 4/6 weeks, 2 cycles
  Type of Response: Resolution of extramedullary chloroma
[4]; patient 34, 10 mg/m^2 × 4/6 weeks, 2 cycles, bone marrow blast response
  Type of Response: Bone marrow CR (54% → 3% blasts, cycle 1)
[4]; patient 34, 10 mg/m^2 × 4/6 weeks, 2 cycles, myeloid differentiation by ANC
  Type of Response: Differentiation in myeloid lineage (ANC 103/μL →
[4]; patient 34, 10 mg/m^2 × 4/6 weeks, cycle 1, from ANC 103/μL
  ANCmax: 854 µL⁻¹
[4]; patient 34, 10 mg/m^2 × 4/6 weeks, cycle 2
  ANCmax: 2929 µL⁻¹
[4]; range 3-28
  median time to 50% reduction in WBC counts: 6 days
